Results from the supplement of paper PMC11061612.

Legend:
[1] = tested on: U-266 (Plasma Cell Myeloma); assay: Bliss excess, mean over the matrix (fraction); higher = more synergy
How it was run: (§1)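 Cell lines in DMEM/F12 or RPMI with 10% FBS were plated in 1536-well plates, held 24 hours at 37°C, 5% CO2, then given two-drug dose matrices for 72 hours (DMSO typically 0.2%). Viability was read by CellTiter-Glo 2.0 luminescence and scaled as inhibition from 0 (vehicle wells) to 1 (blank wells). Combination Emax is the second-highest inhibition in the matrix; Bliss excess is observed combination effect minus expected EA + EB − EA·EB, EA and EB being single-agent effects.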

[2] = tested on: LS-513 (Colorectal Carcinoma); assay: as above
How it was run: as §1

Row | Compound | Bliss excess [1] | Bliss excess [2]
1 | CN(CCO)CC[C@H](CSc1ccccc1)Nc1ccc(S(=O)(=O)NC(=O)c2ccc(N3CCC([C@@H](O)c4ccccc4-c4ccc(Cl)cc4)CC3)cc2)cc1S(=O)(=O)C(F)(F)F [AZD4320] + C1CN(CCC1(C(=O)N[C@@H](CCO)C2=CC=C(C=C2)Cl)N)C3=NC=NC4=C3C=CN4 [Capivasertib] (first compound max 1 µM, 7x7, partner max 3 µM) | -0.0061 | -0.0728
2 | CN(CCO)CC[C@H](CSc1ccccc1)Nc1ccc(S(=O)(=O)NC(=O)c2ccc(N3CCC([C@@H](O)c4ccccc4-c4ccc(Cl)cc4)CC3)cc2)cc1S(=O)(=O)C(F)(F)F [AZD4320] + C=CCn1c(=O)c2cnc(Nc3ccc(N4CCN(C)CC4)cc3)nc2n1-c1cccc(C(C)(C)O)n1 [AZD1775] (first compound max 1 µM, partner max 1 µM) | 0.1 | -0.0134
3 | CN(CCO)CC[C@H](CSc1ccccc1)Nc1ccc(S(=O)(=O)NC(=O)c2ccc(N3CCC([C@@H](O)c4ccccc4-c4ccc(Cl)cc4)CC3)cc2)cc1S(=O)(=O)C(F)(F)F [AZD4320] + CCN(CCO)CCCOc1ccc2c(Nc3cc(CC(=O)Nc4cccc(F)c4)[nH]n3)ncnc2c1 [AZD2811] (first compound max 1 µM, 7x7, partner max 1 µM) | 0.113 | -0.0584
4 | CN(CCO)CC[C@H](CSc1ccccc1)Nc1ccc(S(=O)(=O)NC(=O)c2ccc(N3CCC([C@@H](O)c4ccccc4-c4ccc(Cl)cc4)CC3)cc2)cc1S(=O)(=O)C(F)(F)F [AZD4320] + CN(C)CCCOc1ccc(-c2ccc3ncc4c(c3c2)n(C2CCOCC2)c(=O)n4C)cn1 [AZD0156] (first compound max 1 µM, 7x7, partner max 1 µM) | 0.0462 | -0.0391
5 | CN(CCO)CC[C@H](CSc1ccccc1)Nc1ccc(S(=O)(=O)NC(=O)c2ccc(N3CCC([C@@H](O)c4ccccc4-c4ccc(Cl)cc4)CC3)cc2)cc1S(=O)(=O)C(F)(F)F [AZD4320] + C[C@@H]1COCCN1C2=NC(=NC(=C2)C3(CC3)[S@](=N)(=O)C)C4=C5C=CNC5=NC=C4 [AZD6738] (first compound max 1 µM, 7x7, partner max 10 µM) | -0.0133 | -0.0354
6 | CN(CCO)CC[C@H](CSc1ccccc1)Nc1ccc(S(=O)(=O)NC(=O)c2ccc(N3CCC([C@@H](O)c4ccccc4-c4ccc(Cl)cc4)CC3)cc2)cc1S(=O)(=O)C(F)(F)F [AZD4320] + C[C@@H](Nc1cc(F)cc(F)c1)c1cc(C(=O)N(C)C)cc2c(=O)cc(N3CCOCC3)oc12 [AZD8186] (first compound max 1 µM, 7x7, partner max 3 µM) | -0.0077 | -0.0076
7 | CN(CCO)CC[C@H](CSc1ccccc1)Nc1ccc(S(=O)(=O)NC(=O)c2ccc(N3CCC([C@@H](O)c4ccccc4-c4ccc(Cl)cc4)CC3)cc2)cc1S(=O)(=O)C(F)(F)F [AZD4320] + Cc1cc2ncnn2cc1Nc1ncc2c(n1)n(C1CCOCC1)c(=O)n2C [AZD7648] (first compound max 1 µM, 7x7, partner max 10 µM) | -0.0005 | -0.0543
8 | CN(CCO)CC[C@H](CSc1ccccc1)Nc1ccc(S(=O)(=O)NC(=O)c2ccc(N3CCC([C@@H](O)c4ccccc4-c4ccc(Cl)cc4)CC3)cc2)cc1S(=O)(=O)C(F)(F)F [AZD4320] + Cn1cnc2c(F)c(Nc3ccc(Br)cc3Cl)c(C(=O)NOCCO)cc21 [Selumetinib] (first compound max 1 µM, 7x7, partner max 3 µM) | 0.13 | 
9 | Cc1c2c(nn1C)CSCc1cc(n(C)n1)CSc1cc(c3ccccc3c1)OCCCc1c(C(=O)O)n(C)c3c-2c(Cl)ccc13 [AZD5991] + C1CN(CCC1(C(=O)N[C@@H](CCO)C2=CC=C(C=C2)Cl)N)C3=NC=NC4=C3C=CN4 [Capivasertib] (first compound max 1 µM, 7x7, partner max 3 µM) | 0.0662 | -0.0343
10 | Cc1c2c(nn1C)CSCc1cc(n(C)n1)CSc1cc(c3ccccc3c1)OCCCc1c(C(=O)O)n(C)c3c-2c(Cl)ccc13 [AZD5991] + C=CCn1c(=O)c2cnc(Nc3ccc(N4CCN(C)CC4)cc3)nc2n1-c1cccc(C(C)(C)O)n1 [AZD1775] (first compound max 1 µM, partner max 1 µM) | -0.0008 | -0.0115
11 | Cc1c2c(nn1C)CSCc1cc(n(C)n1)CSc1cc(c3ccccc3c1)OCCCc1c(C(=O)O)n(C)c3c-2c(Cl)ccc13 [AZD5991] + CC1(C)CCC(CN2CCN(c3ccc(C(=O)NS(=O)(=O)c4ccc(NCC5CCOCC5)c([N+](=O)[O-])c4)c(Oc4cnc5[nH]ccc5c4)c3)CC2)=C(c2ccc(Cl)cc2)C1 [Venetoclax] (first compound max 1 µM, 7x7, partner max 1 µM) | 0.0759 | -0.0523
12 | Cc1c2c(nn1C)CSCc1cc(n(C)n1)CSc1cc(c3ccccc3c1)OCCCc1c(C(=O)O)n(C)c3c-2c(Cl)ccc13 [AZD5991] + CCN(CCO)CCCOc1ccc2c(Nc3cc(CC(=O)Nc4cccc(F)c4)[nH]n3)ncnc2c1 [AZD2811] (first compound max 1 µM, 7x7, partner max 1 µM) | 0.0482 | 0.0137
13 | Cc1c2c(nn1C)CSCc1cc(n(C)n1)CSc1cc(c3ccccc3c1)OCCCc1c(C(=O)O)n(C)c3c-2c(Cl)ccc13 [AZD5991] + CN(C)CCCOc1ccc(-c2ccc3ncc4c(c3c2)n(C2CCOCC2)c(=O)n4C)cn1 [AZD0156] (first compound max 1 µM, 7x7, partner max 1 µM) | 0.0057 | -0.0378
14 | Cc1c2c(nn1C)CSCc1cc(n(C)n1)CSc1cc(c3ccccc3c1)OCCCc1c(C(=O)O)n(C)c3c-2c(Cl)ccc13 [AZD5991] + C[C@@H]1COCCN1C2=NC(=NC(=C2)C3(CC3)[S@](=N)(=O)C)C4=C5C=CNC5=NC=C4 [AZD6738] (first compound max 1 µM, 7x7, partner max 10 µM) | 0.0624 | 0.0383
15 | Cc1c2c(nn1C)CSCc1cc(n(C)n1)CSc1cc(c3ccccc3c1)OCCCc1c(C(=O)O)n(C)c3c-2c(Cl)ccc13 [AZD5991] + C[C@@H](Nc1cc(F)cc(F)c1)c1cc(C(=O)N(C)C)cc2c(=O)cc(N3CCOCC3)oc12 [AZD8186] (first compound max 1 µM, 7x7, partner max 3 µM) | -0.0496 | -0.0331
16 | Cc1c2c(nn1C)CSCc1cc(n(C)n1)CSc1cc(c3ccccc3c1)OCCCc1c(C(=O)O)n(C)c3c-2c(Cl)ccc13 [AZD5991] + Cc1cc2ncnn2cc1Nc1ncc2c(n1)n(C1CCOCC1)c(=O)n2C [AZD7648] (first compound max 1 µM, 7x7, partner max 10 µM) | 0.0078 | 0.002
17 | Cc1c2c(nn1C)CSCc1cc(n(C)n1)CSc1cc(c3ccccc3c1)OCCCc1c(C(=O)O)n(C)c3c-2c(Cl)ccc13 [AZD5991] + Cn1cnc2c(F)c(Nc3ccc(Br)cc3Cl)c(C(=O)NOCCO)cc21 [Selumetinib] (first compound max 1 µM, 7x7, partner max 3 µM) | 0.0068 | -0.0242
18 | CC(=O)Nc1cccc(-n2c(=O)n(C3CC3)c(=O)c3c(Nc4ccc(I)cc4F)n(C)c(=O)c(C)c32)c1 [Trametinib] + Cc1nc(-c2cn3c(n2)-c2ccc(-c4cnn(C(C)(C)C(N)=O)c4)cc2OCC3)n(C(C)C)n1 [Taselisib] (first compound max 1 µM, 7x7, partner max 10 µM) | 0.181 | 0.0113
19 | CC1(C)CCC(CN2CCN(c3ccc(C(=O)NS(=O)(=O)c4ccc(NCC5CCOCC5)c([N+](=O)[O-])c4)c(Oc4cnc5[nH]ccc5c4)c3)CC2)=C(c2ccc(Cl)cc2)C1 [Venetoclax] + C1CN(CCC1(C(=O)N[C@@H](CCO)C2=CC=C(C=C2)Cl)N)C3=NC=NC4=C3C=CN4 [Capivasertib] (first compound max 1 µM, 7x7, partner max 3 µM) | -0.071 | -0.0649
20 | CC1(C)CCC(CN2CCN(c3ccc(C(=O)NS(=O)(=O)c4ccc(NCC5CCOCC5)c([N+](=O)[O-])c4)c(Oc4cnc5[nH]ccc5c4)c3)CC2)=C(c2ccc(Cl)cc2)C1 [Venetoclax] + C=CCn1c(=O)c2cnc(Nc3ccc(N4CCN(C)CC4)cc3)nc2n1-c1cccc(C(C)(C)O)n1 [AZD1775] (first compound max 1 µM, partner max 1 µM) | 0.104 | -0.0581
21 | CC1(C)CCC(CN2CCN(c3ccc(C(=O)NS(=O)(=O)c4ccc(NCC5CCOCC5)c([N+](=O)[O-])c4)c(Oc4cnc5[nH]ccc5c4)c3)CC2)=C(c2ccc(Cl)cc2)C1 [Venetoclax] + CCN(CCO)CCCOc1ccc2c(Nc3cc(CC(=O)Nc4cccc(F)c4)[nH]n3)ncnc2c1 [AZD2811] (first compound max 1 µM, 7x7, partner max 1 µM) | -0.0216 | -0.0407
22 | CC1(C)CCC(CN2CCN(c3ccc(C(=O)NS(=O)(=O)c4ccc(NCC5CCOCC5)c([N+](=O)[O-])c4)c(Oc4cnc5[nH]ccc5c4)c3)CC2)=C(c2ccc(Cl)cc2)C1 [Venetoclax] + CN(C)CCCOc1ccc(-c2ccc3ncc4c(c3c2)n(C2CCOCC2)c(=O)n4C)cn1 [AZD0156] (first compound max 1 µM, 7x7, partner max 1 µM) | 0.0264 | -0.0273
23 | CC1(C)CCC(CN2CCN(c3ccc(C(=O)NS(=O)(=O)c4ccc(NCC5CCOCC5)c([N+](=O)[O-])c4)c(Oc4cnc5[nH]ccc5c4)c3)CC2)=C(c2ccc(Cl)cc2)C1 [Venetoclax] + COc1cc(Nc2ncc3c(n2)-c2ccc(Cl)cc2C(c2c(F)cccc2OC)=NC3)ccc1C(=O)O [Alisertib] (first compound max 1 µM, 7x7, partner max 10 µM) | 0.131 | -0.0655
24 | CC1(C)CCC(CN2CCN(c3ccc(C(=O)NS(=O)(=O)c4ccc(NCC5CCOCC5)c([N+](=O)[O-])c4)c(Oc4cnc5[nH]ccc5c4)c3)CC2)=C(c2ccc(Cl)cc2)C1 [Venetoclax] + C[C@@H]1COCCN1C2=NC(=NC(=C2)C3(CC3)[S@](=N)(=O)C)C4=C5C=CNC5=NC=C4 [AZD6738] (first compound max 1 µM, 7x7, partner max 10 µM) | -0.0402 | -0.0591
